Test results published in patent US9855341B2, “Formulations and carrier systems including farnesylthiosalycylic moities” (University of Pittsburgh—Of the Commonwealth System of …, priority 2014, dated 2018).

Legend:
[1] = mouse, in vivo, iv
Method: The blood samples were collected in heparinized tubes at different time points (3 min, 8 min, 15 min, 30 min, 1 h, 2 h, 4 h, 8 h, and 12 h) post-injection. The blood was centrifuged (2,500 rpm, 10 min) and plasma was collected for the analysis. […] Non-compartmental pharmacokinetic analysis was done by WinNonlin. […] At day 1 post-injection, tumor tissues and major organs were collected from the mice. The tissues were weighed and homogenized using Homogenizer PowerGen 500 (Fisher Scientific). […] The solutions were centrifuged (2,500 rpm, 10 min) and the supernatant was used for HPLC measurement.

[2] = Text: Changes in body weight and mouse survival were monitored daily for two weeks. The MTD was defined as the maximal dose that causes neither greater than 15% of body weight loss nor mouse mortality within two weeks after administration. See Lu, J.; Huang, Y.; Zhao, W.; Marquez, R. T.; Meng, X.; Li, J.; Gao, X.; Venkataramanan, R.; Wang, Z.; Li, S., PEG-derivatized embelin as a nanomicellar carrier for delivery of paclitaxel to breast and prostate cancers. Biomaterials, 34, 1591-600 (2013).
[3] = system: HCT-116 human colon carcinoma cell line; assay: In vitro cytotoxicity, HCT-116; type: cell-based; details: HCT-116 cells
Text: Several cancer cell lines were included in the cytotoxicity studies including murine breast cancer cells 4T1.2, human colon carcinoma cell line HCT-116, and two human prostate cancer cell lines PC-3 and DU145. […] A similar result was obtained in human colon cancer cells, HCT-116 as illustrated in FIG. 3B. […] Without limitation to any mechanism, it is likely that FTS is much more readily released from PEG5KFTS2(L) by esterases following intracellular delivery.
Incorporation of an additional disulfide linkage into PEG5K-FTS2(L) led to further improvement in cytotoxicity. […] Without limitation to any mechanism, this observation may, for example, be a result of enhanced intracellular delivery of FTS via PEG5K-S—S-FTS2(L).
The cytotoxicity of drug-free PEG5K-Fmoc-FTS2 and PEG5K-FTS2 micelles was examined in 4T1.2 and HCT-116 tumor cells and compared to free FTS (see FIGS. 12A and 12B, respectively). […] Without limitation to any mechanism, it is likely that the cytotoxicity of PEG-FTS comes from the released FTS following intracellular delivery.
FIGS. 13A-C show the cytotoxicity of TAXOL and PTX formulated in PEG5K-Fmoc-FTS2 micelles in several cancer cell lines.
See Zhang, X.; et al., PEG-farnesylthiosalicylate conjugate as a nanomicellar carrier for delivery of paclitaxel. Bioconjug. Chem., 24, 464-72 (2013). The cytotoxicity of free PEG5K-FTS2, PEG5K-Fmoc-FTS2 and FTS was also examined.

[4] = system: 4T1.2 mouse breast cancer cell line; assay: In vitro cytotoxicity, 4T1.2; type: cell-based; details: 4T1.2 cells
[5] = system: PC-3 human prostate cancer cell line; assay: In vitro cytotoxicity, PC-3; type: cell-based; details: PC-3 cells
Text: FIG. 9B illustrates cytotoxicity of FTS and FTS-amide in a PC-3 human prostate cancer cell line.
As described above, FTS and derivatives thereof can be used in the carrier agents hereof. In a number of embodiments (for example, for drug delivery), biologically active derivatives of FTS are used. […] Similar results were obtained in our in vitro cytotoxicity study with HCT-116 and PC-3 cancer cell lines (see FIGS. 9A and 9B).

[6] = system: human prostate cancer xenograft model (PC-3); assay: NIRF optical imaging biodistribution; details: PC-3 xenograft, i.v.
Method: Biodistribution and tumor-targeting efficiency of PEG5K-Fmoc-FTS2 micelles were tested in a human prostate cancer xenograft model (PC-3). DiD, a hydrophobic near infrared fluorescence (NIRF) dye with high penetration, low tissue absorption and scattering was loaded into the PEG5K-Fmoc-FTS2 micelles for tissue imaging. […] After last imaging at 96 h post-injection, tumors and major organs were excised for ex vivo imaging.
At indicated times (0.5 h, 6 h, 24 h, 48 h, 72 h and 96 h), the mice were scanned using a Carestream Molecular Imaging System, In vivo Multispectral FX PRO, with the excitation at 630 nm and the emission at 700 nm using a 30 s exposure time. The mice were anesthetized by isoflurane inhalation before each imaging. After 96 h, the mice were euthanized by CO2 overdose. The tumor and major organs were excised for ex vivo imaging.

## COc1cccc2c1C(=O)c1c(O)c3c(c(O)c1C2=O)C[C@@](O)(C(=O)CO)C[C@@H]3O[C@H]1C[C@H](N)[C@H](O)[C@H](C)O1 [DOX, doxorubicin]
[1]
  Vd: 7.34 L/kg
[2]; 15 mg DOX/kg
  decrease in the body weight: > 15%
  mortality: death of all treated mice
[2]; dose of 10 mg/kg (DOX)
  tolerability: well tolerated

## CC(C)=CCC/C(C)=C/CC/C(C)=C/CSc1ccccc1C(=O)O [FTS, S-trans, trans-farnesylthiosalicylic acid]
[3]
  cytotoxicity (tumor cell growth inhibition): inhibited the tumor cell growth in a concentration-dependent manner
[4]
  cytotoxicity (tumor cell growth inhibition): inhibited the tumor cell growth in a concentration-dependent manner

## CC(C)=CCC/C(C)=C/CC/C(C)=C/CSc1ccccc1C(N)=O [FTS-amide, S-trans, trans-farnesylthiosalicylic acid amide]
[3]
  cytotoxicity (tumor cell growth inhibition): more effective than the parent compound in inhibiting the tumor cell growth
[5]
  cytotoxicity (tumor cell growth inhibition): more effective than the parent compound in inhibiting the tumor cell growth

## CCCCCCCCCCCCCCCCCCN1C(=CC=CC=CC2=[N+](CCCCCCCCCCCCCCCCCC)c3ccccc3C2(C)C)C(C)(C)c2ccccc21.[O-][Cl+3]([O-])([O-])[O-] [free DiD, 1,1′-dioctadecyl-3,3,3′,3′-tetramethylindodicarbocyanine perchlorate]
[6]
  tumor accumulation (NIRF imaging): No obvious tumor accumulation
